Results taken from patent publication US20020119136A1, “Antimicrobial peroxidase compositions” (Novozymes A/S, priority 1996, published 2002).

How the values were obtained:
P. fluorescens = conditions: rCIP 3 POXU/ml, enhancing agent 5 mM, 15 min, pH 6.0, 40 C; for bactericidal activity of rCIP with the enhancing agent: glucose oxidase/glucose or 5 mM H2O2, 10^4 cfu/ml
Procedure: In order to avoid interference with substrate components, the experiment was carried out in a buffer instead of in a growth substrate.
The bactericidal activity was determined by plate counting and by incubation in Malthus. The detection times measured by the Malthus instrument were converted to cfu/ml by a standard curve.
Indirect Malthus measurements were used when enumerating total survival cells (Malthus Flexi M2060, Malthus Instrument Limited). 3 ml of growth medium was transferred to the outer chamber of the indirect Malthus cells, and 0.5 ml of sterile KOH (0.1 M) was transferred to the inner chamber. The cell suspensions were after enzyme treatment transferred to the outer chamber of the Malthus cell. As cells are growing in the outer chamber they produce CO2 which will dissolve in the KOH in the inner chamber and thereby change the conductance of the KOH. The amount of CO2 formed by the respiring cells surviving the enzyme treatment was used for estimating the number of viable cells. When the conductance change is measurable by the Malthus, a detection time (dt) will be recorded. The dt's were converted to colony counts by use of a calibration curve relating cfu/ml to dt (FIG. 1).

[1] = tested on: Pseudomonas aeruginosa ATCC 10146; experiment: Antibacterial activity of rCIP and KI against P. aeruginosa (Malthus, 2^3 factorial design); format: cell-based; conditions: components present at rCIP 0.5 POXU/ml, H2O2 0.5 mM, KI 0.5 mM; 15 min, 40 C, pH 6.0; approx 10^7 cfu/ml; untreated 1.7*10^7
Procedure: (§1) The antibacterial activity of rCIP was tested in phosphate buffer (pH 6.0) against Pseudomonas aeruginosa ATCC 10146 and Staphylococcus aureus ATCC 25923 with potassium iodide as electron donor, and hydrogen peroxide was added as electron acceptor. The cells (approximately 10^7 cfu/ml) were incubated with enzyme for 15 min at 40?C., and the experiment was carried out using a 2^3 factorial design reproduced two times. The bactericidal activity was determined by incubation in Malthus.

[2] = tested on: Staphylococcus aureus ATCC 25923; experiment: Antibacterial activity of rCIP and KI against S. aureus (Malthus, 2^3 factorial design); format: cell-based; conditions: components present at rCIP 0.5 POXU/ml, H2O2 0.5 mM, KI 0.5 mM; 15 min, 40 C, pH 6.0; untreated 2.9*10^8
Procedure: as §1

Molecule: N#C[S-].[Na+] [NaSCN, sodium thiocyanate]
- bactericidal activity of rCIP with the enhancing agent (P. fluorescens): statistical significant bactericidal activity

Molecule: OO [H2O2, hydrogen peroxide]
- survivors [1]: 1.2*10^7 cfu/ml
- survivors [2]: 1.3*10^8 cfu/ml

Molecule: O=C(O)CCN1c2ccccc2Sc2ccccc21 [PPT, 10-phenothiazine propionic acid]
- bactericidal activity of rCIP with the enhancing agent (P. fluorescens): slight bactericidal activity

Molecule: [I-].[K+] [KI, potassium iodide]
- survivors [1]: 2.1*10^7 cfu/ml
- survivors [2]: 2.0*10^8 cfu/ml
- bactericidal activity (P. fluorescens; H2O2 source, by plate counts and Malthus): 100%
- bactericidal activity of rCIP with the enhancing agent (P. fluorescens): statistical significant bactericidal activity

B1: rCIP: Coprinus cinereus, IFO 8371, recombinant peroxidase (rCIP) available from Novo Nordisk A/S (protein, UniProt P28314 21-363, looked up)
Peroxidase: QGPGGGGSVTCPGGQSTSNSQCCVWFDVLDDLQTNFYQGSKCESPVRKILRIVFHDAIGFSPALTAAGQFGGGGADGSIIAHSNIELAFPANGGLTDTVEALRAVGINHGVSFGDLIQFATAVGMSNCPGSPRLEFLTGRSNSSQPSPPSLIPGPGNTVTAILDRMGDAGFSPDEVVDLLAAHSLASQEGLNSAIFRSPLDSTPQVFDTQFYIETLLKGTTQPGPSLGFAEELSPFPGEFRMRSDALLARDSRTACRWQSMTSSNEVMGQRYRAAMAKMSVLGFDRNALTDCSDVIPSAVSNNAAPVIPGGLTVDDIEVSCPSEPFPEIATASGPLPSLAPAP
- survivors [1]: 2.6*10^7 cfu/ml
- survivors [2]: 1.6*10^8 cfu/ml
